Patent US11179449B2, “Immunogenic preprocalcitonin peptides” (Institut Gustave Roussy, priority 2015, dated 2021)

Tests used:
[1] = test system: PBMC of patients with non-small cell lung cancer (NSCLC); assay: In vitro stimulation of PBMC of NSCLC patients with 9- or 10-aa ppCT peptides, CD8+/IFNγ+ cells by flow cytometry; format: cell-based, human
Protocol: The peripheral blood mononuclear cells (PBMC) of 11 patients with non-small cell lung cancer (NSCLC) were isolated from the peripheral blood by Ficoll. For each peptide, the PBMC were stimulated twice (D0 and D7) with 20 μM of peptide. The PBMC were cultivated for 2 weeks on 96-well plates, at a rate of 20 million cells/plate, on complete medium (RPMI 1640, 10% SAB, 1% sodium pyruvate, 0.1% penicillin/[…]) in the presence of IL-2 (20 IU/ml)+IL-4 (10 ng/ml)+IL-7 (10 ng/ml).
After 15 days, the PBMC are again stimulated with 2.5 μM of the peptide used during the first stimulation step, in the presence of 100 μg/ml of Brefeldin A, and incubated for 6 hours at 37° C., 5% CO2. The cells are then incubated for 20 minutes with an anti-CD8-APC antibody, then washed in PBS, fixed with PBS-formaldehyde 2% and permeabilised by BSA/saponin. They are then incubated with an anti-IFN-γ-PE antibody. The analysis is carried out by flow cytometry. The statistical study is performed using the Mann-Whitney test and the statistically significant increases are indicated (*p<0.05; **p<0.01; ***p<0.005).

[2] = test system: CD8 T lymphocytes expressing IFNγ (splenocytes); assay: Immunisation of HLA-A2 transgenic mice with peptide combinations, CD8+/IFNγ+ splenocytes by flow cytometry after ex vivo restimulation; format: in vivo, transgenic mice for the HLA-A2 molecules; details: splenocytes of immunised mice
Protocol: The transgenic mice for the HLA-A2 molecules were immunised 4 times (D0, D7, D14 and D21), under the skin on the flank, with 100 μl of peptide combinations containing an equimolar mixture of 100 μM of each of the peptides and an adjuvant (25 μg of Poly (I:C)) (FIG. 4). At 28 days after the first injection, the mice were sacrificed and the splenocytes were recovered and cultivated overnight in complete medium (RPMI 1640, 10% FBS, 1% sodium pyruvate, 0.1% penicillin/[…]) in the presence of IL-2 (20 IU/ml).
The next day, the splenocytes were stimulated with 2.5 μM of each of the peptides, alone or in combination, in the presence of 10 μg/ml of Brefeldin A and incubated for 6 hours at 37° C., 5% CO2. The cells are then incubated for 20 minutes with an anti-CD8-PE antibody, then washed in PBS, fixed with PBS-formaldehyde 2% and permeabilised with BSA/saponin. They are then incubated with an anti-IFNγ-APC antibody. The analysis is carried out by flow cytometry.

[3] = patients 4, 5 and 7 (respond only to these peptides)

Row | Sequence | lymphocyte response after stimulation ([1]; patient 3) | lymphocyte response after stimulation [1, 3] | CD8 T lymphocyte response induced by the peptide alone on ex vivo stimulation [2]
1 | CMLGTYTQDF (synthetic peptide ppCT91-100) | triggers a response | – | –
2 | FLALSILVL (synthetic peptide ppCT9-17) | – | trigger a lymphocyte response | –
3 | LLAALVQDYV (synthetic peptide ppCT50-59) | triggers a response | trigger a lymphocyte response | strong response
